From PubChem BioAssay (NCI) come the findings set out here.

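48-hour exposure; five concentrations; linearly interpolated endpoints. TGI marks complete inhibition of growth.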

Common to all, as to test: growth of human tumour cells (NCI), 48 h
Assay [1] relates to OVCAR-5 ovarian.
In assay [2] the test system is EKVX NSCLC.
Assay [3] relates to SNB-75 CNS.
Assay [4] has as its system M14 melanoma.
Assay [5] deals with SW-620 colon.
Assay [6] relates to HL-60(TB) leukemia.
Assay [7] has as its system SR leukemia.
In assay [8] the test system is CAKI-1 renal.
Assay [9] deals with RXF 393 renal.

Turning to `O=C(O)c1cc(=O)c2cc(C(=O)c3cccs3)c(Cl)c(Cl)c2o1`, the TGI in assay [1], in [2], in assay [3], in [4], in assay [5] and in [6] was > 100 µM in each case. Moreover, the TGI in assay [7] and in assay [8] was > 100 µM each time.
On to `CCSC(=O)C1(C)OC2CCCCC2C1=O` (centres undefined), for which the TGI in assay [3], in [9], in [4], in [5], in assay [6] and in assay [7] was > 100 µM throughout. Moreover, the TGI in assay [8] is > 100 µM.
For `[O-][n+]1c2cc(CN3CCOCC3)c(CN3CCOCC3)cc2[n+]([O-])c2c(O)cccc21`, the TGI in [1] was determined as 15.2 µM; in assay [2] it was 20.2 µM; in [3], 21.3 µM; in [9], 5.11 µM; in assay [4] it was 13.2 µM; in assay [5] it was 7.16 µM. For the same compound, the figures for the TGI in [6], in assay [7] and in [8] were 10.9 µM, 0.701 µM and > 23.9 µM, respectively.
Consider `O=C(O)C1CC2CC(=O)C1C2` (centres undefined), for which the TGI in [1], in [2], in assay [3], in [9], in assay [4] and in assay [5] was > 100 µM throughout. Further, the TGI in assay [6], in [7] and in assay [8] was > 100 µM in each case.
On to `CCCCCCCCCCCCCCCCCc1nnc(N)o1`, for which the TGI in assay [1], in assay [3], in assay [4], in [5], in assay [6] and in assay [7] was > 100 µM in each case. Besides, in assay [8], the TGI was > 100 µM.
`OC1c2ccccc2C2C(O)c3ccccc3C12` (centres undefined): the TGI in assay [1], in assay [2], in assay [3], in [9], in assay [4] and in assay [5] was > 100 µM throughout. The TGI in [6] and in assay [8] was > 100 µM in each case.
For the compound `COC(=O)c1nc(N)nc(C(=O)OC)c1C(=O)c1ccccc1`, the TGI in assay [1], in assay [2], in assay [3], in assay [9], in assay [4] and in assay [5] was > 100 µM throughout. In addition, the TGI in [6] and in assay [7] was > 100 µM each time.
On to `Nc1ccc(C2=Nc3ccccc3SC(c3ccccc3O)C2)cc1` (centres undefined), for which the TGI is > 100 µM in assay [1]; > 100 µM in assay [2]; 93.3 µM in assay [3]; > 100 µM in [9]; > 100 µM in [4]; > 100 µM in assay [5]. Further, the TGI was 62.7 µM in assay [6] and > 100 µM in assay [8].
For the compound `O=C1NN=CN2C(=O)CCC12` (centres undefined), the TGI in assay [2], in assay [3], in [9], in assay [4], in assay [5] and in assay [6] was > 100 µM in each case. Moreover, the TGI in assay [7] and in assay [8] was > 100 µM throughout.
With `O=c1[nH]c2c(c3ccccc13)CCc1ccccc1-2`, the TGI in assay [1], in [2], in [3], in assay [9], in assay [5] and in [7] was > 100 µM each time. Further, the TGI in assay [8] is > 100 µM.
With `COc1cc(/C=C\c2ccc(Cl)cc2)cc(OC)c1OC`, the TGI in assay [1] was > 31.6 µM; in [2], > 87.5 µM; in assay [9] it was > 100 µM; in [4], 22.7 µM; in assay [5], > 100 µM; in [6] it was 2.45 µM. The TGI is 16.7 µM in [7] and 47.4 µM in assay [8].
Consider `COC(=O)C1=C(c2ccc(Cl)cc2)C(O)N=C(NN)N1` (centres undefined), for which the TGI in assay [1], in assay [2], in assay [9], in assay [4], in [5] and in assay [6] was > 100 µM throughout. The TGI in assay [7] and in [8] was > 100 µM each time.
For `CC1CC(=O)c2c(ccc3c2C(=O)c2cccc(O)c2C3=O)C1` (centres undefined), the TGI turned out to be 36.1 µM in assay [1]; 28 µM in assay [2]; 22.9 µM in assay [3]; 10.7 µM in assay [4]; 17.4 µM in [5]; 18.1 µM in assay [6]. This compound also gave a TGI in [7] of 35.9 µM.
In the case of `NC(=O)N/N=C(\CCC(=O)N(Cc1ccccc1)Cc1ccccc1)CC(=O)c1ccc(F)cc1`, the TGI in [1], in assay [2], in assay [9], in assay [4], in assay [5] and in assay [6] was > 100 µM throughout. Further, the TGI in [7] and in assay [8] was > 100 µM each time.
Regarding `N#CC(C(=O)CCC(=O)Nc1ccc(Cl)c(Cl)c1)c1ccc(Cl)cc1` (centres undefined), the TGI in assay [1], in [2], in assay [3], in assay [9], in assay [4] and in [5] was > 100 µM throughout. The TGI in assay [6] and in assay [8] was > 100 µM throughout.
`CCOC(=O)c1cn(CC)c2cc3c(cc2c1=O)SCS3`: the TGI in assay [1], in assay [2], in [3], in assay [9], in assay [4] and in [5] was > 100 µM each time. Besides, the TGI in [6] and in [8] was > 100 µM each time.
For the compound `CC(=O)O[C@H]1CC[C@@]2(C)C(=C/C(=N\[N+](=O)[O-])[C@H]3C4CCC([C@H](C)CCCC(C)C)[C@@]4(C)CCC32)C1` (some centres undefined), the TGI in assay [1], in assay [2], in [3], in assay [9], in assay [4] and in assay [5] was > 100 µM in each case. Besides, the TGI in assay [6] and in assay [8] was > 100 µM in each case.
